Data reported in ChEMBL document CHEMBL2346553, “Synthesis and evaluation of non-dimeric HCV NS5A inhibitors” (Bioorg Med Chem Lett, 2013).
pEC50, pIC50: −log10 of the molar value.

Legend:
[1] = test system: Vero; settings: chlorocebus sabaeus
[2] = test system: CCRF-CEM; settings: human
[3] = test system: PBMC; settings: human
[4] = in vitro; settings: human, HuH7 cells
[5] = test system: Hepatitis C virus; assay: microbe, parasite or virus in culture; settings: genotype 1b, Huh-7
[6] = target: Cytochrome P450 2D6 (Homo sapiens, UniProt P10635)
[7] = target: Cytochrome P450 2C9 (Homo sapiens, UniProt P11712)
[8] = target: T1, Cytochrome P450 1A2 (Homo sapiens, UniProt P05177)
T1 sequence (P05177 whole entry): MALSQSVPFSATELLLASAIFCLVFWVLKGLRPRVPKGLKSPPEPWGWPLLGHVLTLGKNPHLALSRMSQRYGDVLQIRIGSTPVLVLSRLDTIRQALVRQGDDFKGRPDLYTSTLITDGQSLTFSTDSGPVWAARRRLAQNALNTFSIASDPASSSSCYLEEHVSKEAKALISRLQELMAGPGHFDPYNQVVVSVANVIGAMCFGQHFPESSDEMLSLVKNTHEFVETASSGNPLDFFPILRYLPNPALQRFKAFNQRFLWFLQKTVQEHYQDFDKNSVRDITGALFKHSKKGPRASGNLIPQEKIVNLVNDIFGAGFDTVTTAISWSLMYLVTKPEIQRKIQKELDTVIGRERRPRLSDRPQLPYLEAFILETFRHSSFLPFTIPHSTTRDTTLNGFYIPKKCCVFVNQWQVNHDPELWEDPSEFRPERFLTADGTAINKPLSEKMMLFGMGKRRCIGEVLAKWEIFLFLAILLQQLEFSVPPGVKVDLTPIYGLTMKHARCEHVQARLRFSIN

[9] = target: Cytochrome P450 3A4 (Homo sapiens, UniProt P08684)
[10] = target: CYP2D6 (Homo sapiens, UniProt P10635); assay: in vitro
[11] = target: CYP2C9 (Homo sapiens, UniProt P11712); assay: in vitro
[12] = target: T2, CYP1A2 (Homo sapiens, UniProt P05177); assay: in vitro
T2 sequence (P05177 whole entry): T1 sequence (P05177 whole entry)

[13] = target: CYP3A4 (Homo sapiens, UniProt P08684); assay: in vitro
[14] = in vitro; settings: human, CEM cells
[15] = in vitro; settings: human, pbmc

Sequence of Cytochrome P450 2C9 (P11712 whole entry): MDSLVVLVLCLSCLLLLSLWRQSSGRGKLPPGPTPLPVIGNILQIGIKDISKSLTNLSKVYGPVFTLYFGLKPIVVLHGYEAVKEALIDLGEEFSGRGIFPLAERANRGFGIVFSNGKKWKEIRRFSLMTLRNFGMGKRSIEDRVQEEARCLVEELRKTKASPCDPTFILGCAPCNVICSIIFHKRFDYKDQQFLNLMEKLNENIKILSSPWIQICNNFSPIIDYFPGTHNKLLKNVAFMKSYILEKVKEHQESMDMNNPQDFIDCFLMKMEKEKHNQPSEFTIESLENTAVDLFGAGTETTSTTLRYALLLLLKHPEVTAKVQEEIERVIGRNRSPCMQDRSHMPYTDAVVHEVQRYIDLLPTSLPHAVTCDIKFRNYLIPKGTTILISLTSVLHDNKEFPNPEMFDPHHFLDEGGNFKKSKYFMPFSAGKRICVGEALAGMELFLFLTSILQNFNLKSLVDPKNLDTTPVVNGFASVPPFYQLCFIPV
Sequence of CYP2C9 (P11712 whole entry): as above
Sequence of Cytochrome P450 2D6 (P10635 whole entry): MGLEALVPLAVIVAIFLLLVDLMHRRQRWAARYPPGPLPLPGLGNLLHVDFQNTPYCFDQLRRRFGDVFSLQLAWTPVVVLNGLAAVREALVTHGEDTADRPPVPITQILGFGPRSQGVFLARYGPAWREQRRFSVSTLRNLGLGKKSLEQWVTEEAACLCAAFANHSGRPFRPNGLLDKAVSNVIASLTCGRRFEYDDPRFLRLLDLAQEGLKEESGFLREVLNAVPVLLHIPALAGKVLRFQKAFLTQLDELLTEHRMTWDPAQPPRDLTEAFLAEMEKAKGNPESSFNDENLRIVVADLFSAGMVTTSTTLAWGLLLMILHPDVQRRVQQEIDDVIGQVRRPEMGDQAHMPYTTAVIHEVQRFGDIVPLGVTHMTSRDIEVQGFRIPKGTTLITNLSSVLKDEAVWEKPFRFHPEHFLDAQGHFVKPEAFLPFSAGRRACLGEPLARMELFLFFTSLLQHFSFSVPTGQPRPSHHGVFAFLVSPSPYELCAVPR
Sequence of CYP2D6 (P10635 whole entry): as above
Sequence of Cytochrome P450 3A4 (P08684 whole entry): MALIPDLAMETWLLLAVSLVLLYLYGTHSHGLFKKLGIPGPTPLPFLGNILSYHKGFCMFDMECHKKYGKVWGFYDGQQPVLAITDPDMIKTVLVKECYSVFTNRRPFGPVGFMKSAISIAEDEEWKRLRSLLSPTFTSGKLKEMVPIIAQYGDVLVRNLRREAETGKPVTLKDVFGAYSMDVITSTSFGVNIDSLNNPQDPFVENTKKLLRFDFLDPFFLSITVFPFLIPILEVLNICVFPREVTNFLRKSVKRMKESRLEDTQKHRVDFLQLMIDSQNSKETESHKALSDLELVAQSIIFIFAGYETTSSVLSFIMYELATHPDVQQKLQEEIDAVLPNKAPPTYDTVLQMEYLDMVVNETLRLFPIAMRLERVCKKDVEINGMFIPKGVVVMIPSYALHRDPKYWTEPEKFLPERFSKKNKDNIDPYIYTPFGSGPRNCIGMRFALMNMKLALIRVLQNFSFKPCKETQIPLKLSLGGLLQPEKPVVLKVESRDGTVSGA
Sequence of CYP3A4 (P08684 whole entry): as above

pEC50 [5] | EC90 [5] | SMILES | CC50 [1] | CC50 [2] | CC50 [3] | CC50 [4] | pIC50 [6] | pIC50 [7] | pIC50 [8] | pIC50 [9] | IC90 [10] | IC90 [11] | IC90 [12] | IC90 [13] | CC50 [14] | CC50 [15]
< 7.00 |  | COC(=O)N[C@H](C(=O)N1CCC[C@H]1c1ncc(-c2ccc(-c3ccc(C(=O)OC)cc3)cc2)[nH]1)C(C)C | 17 µM | 61 µM | 14 µM | > 1 µM |  |  |  |  |  |  |  |  |  | 
< 7.00 |  | COC(=O)N[C@H](C(=O)N1CCC[C@H]1c1ncc(-c2ccc(C#N)cc2)[nH]1)C(C)C | 33 µM | 98 µM | > 100 µM | > 1 µM |  |  |  |  |  |  |  |  |  | 
< 7.00 |  | COC(=O)N[C@H](C(=O)N1CCC[C@H]1c1ncc(-c2ccc(-c3ccc(OC)cc3)cc2)[nH]1)C(C)C | 13 µM | 30 µM | 85 µM | > 1 µM |  |  |  |  |  |  |  |  |  | 
< 7.00 |  | COC(=O)N[C@H](C(=O)N1CCC[C@H]1c1nc(Cl)c(-c2ccc(-c3ccc(C(F)(F)F)cc3)cc2)[nH]1)C(C)C | 10 µM | 10 µM | 11 µM | > 1 µM |  |  |  |  |  |  |  |  |  | 
9.15 | 2.9 nM | COC(=O)N[C@H](C(=O)N1CCC[C@H]1c1nc(Br)c(-c2ccc(N=[N+]=[N-])cc2)[nH]1)C(C)C | 16 µM | 52 µM | 35 µM | > 1 µM | 4.30 | 4.30 | 4.09 | 5.82 | > 100 µM | > 100 µM | > 100 µM | 46.1 µM |  | 
8.40 | 14 nM | COC(=O)N[C@H](C(=O)N1CCC[C@H]1c1nc(Cl)c(-c2ccc(N=[N+]=[N-])cc2)[nH]1)C(C)C | 12 µM |  | 94 µM | > 1 µM |  |  |  |  |  |  |  |  | > 100 µM | 
< 7.00 |  | COC(=O)Nc1ccc(-c2cnc([C@@H]3CCCN3C(=O)[C@@H](NC(=O)OC)C(C)C)[nH]2)cc1 | > 100 µM | > 100 µM | > 100 µM | > 1 µM |  |  |  |  |  |  |  |  |  | 
6.70 | 300 nM | COC(=O)N[C@H](C(=O)N1CCC[C@H]1c1ncc(-c2ccc(N)cc2)[nH]1)C(C)C | > 100 µM | > 100 µM | > 100 µM | > 1 µM |  |  |  |  |  |  |  |  |  | 
6.00 |  | COC(=O)N[C@H](C(=O)N1CCC[C@H]1c1ncc(-c2ccc(Cl)cc2Cl)[nH]1)C(C)C | 15 µM |  | 56 µM | > 1 µM |  |  |  |  |  |  |  |  | > 100 µM | 
< 6.00 |  | C[C@H](NC(=O)OC(C)(C)C)C(=O)N1CCC[C@H]1c1ncc(-c2ccc(-c3ccccc3)cc2)[nH]1 | 13 µM | 11 µM | 16 µM | > 1 µM |  |  |  |  |  |  |  |  |  | 
< 7.00 |  | COC(=O)N[C@H](C(=O)N1CCC[C@H]1c1ncc(-c2ccc(C(F)(F)F)cc2)[nH]1)C(C)C | 26 µM |  |  | > 1 µM |  |  |  |  |  |  |  |  | > 100 µM | > 100 µM
< 7.00 |  | COC(=O)N[C@H](C(=O)N1CCC[C@H]1c1ncc(-c2ccc(NS(C)(=O)=O)cc2)[nH]1)C(C)C | 13 µM |  |  | > 1 µM |  |  |  |  |  |  |  |  | > 100 µM | > 100 µM
7.68 | 76 nM | COC(=O)N[C@H](C(=O)N1CCC[C@H]1c1ncc(-c2ccc(-c3ccc(C(N)=O)cc3)cc2)[nH]1)C(C)C | > 100 µM | > 100 µM | > 100 µM | > 1 µM |  |  |  |  |  |  |  |  |  | 
< 7.00 |  | COC(=O)N[C@H](C(=O)N1CCC[C@H]1c1ncc(-c2ccc(S(=O)(=O)c3ccccc3)cc2)[nH]1)C(C)C | > 100 µM | > 100 µM | > 100 µM | > 1 µM |  |  |  |  |  |  |  |  |  | 
< 6.00 |  | COC(=O)N[C@H](C(=O)N1CCC[C@H]1c1ncc(-c2ccccc2)[nH]1)C(C)C | > 100 µM | > 100 µM | > 100 µM | > 1 µM |  |  |  |  |  |  |  |  |  | 
6.52 | 900 nM | COC(=O)N[C@H](C(=O)N1CCC[C@H]1c1ncc(-c2ccc(-c3ccccc3)cc2)[nH]1)C(C)C | 18 µM | 70 µM | 14 µM | > 1 µM |  |  |  |  |  |  |  |  |  | 
< 6.00 |  | COC(=O)N[C@H](C(=O)N1CCC[C@H]1c1ncc(-c2ccc(OC)cc2)[nH]1)C(C)C | > 100 µM | > 100 µM | > 100 µM | > 1 µM |  |  |  |  |  |  |  |  |  | 
< 6.00 |  | COC(=O)N[C@H](C(=O)N1CCC[C@H]1c1ncc(-c2ccc(C)cc2)[nH]1)C(C)C | > 100 µM | > 100 µM | > 100 µM | > 1 µM |  |  |  |  |  |  |  |  |  | 
< 7.00 |  | COC(=O)N[C@H](C(=O)N1CCC[C@H]1c1ncc(-c2ccc(-c3ccc(C#N)cc3)cc2)[nH]1)C(C)C | 33 µM | 98 µM | > 100 µM | > 1 µM |  |  |  |  |  |  |  |  |  | 
< 7.00 | > 1000 nM | COC(=O)N[C@@H](CC(C)C)C(=O)N1CCC[C@H]1c1ncc(-c2ccc(-c3ccccc3)cc2)[nH]1 | 25 µM | 61 µM | 16 µM | > 1 µM |  |  |  |  |  |  |  |  |  | 
8.70 | 3 nM | COC(=O)N[C@H](C(=O)N1CCC[C@H]1c1nc(I)c(-c2ccc(N=[N+]=[N-])cc2)[nH]1)C(C)C | 14.2 µM |  | 64.2 µM | > 1 µM |  |  |  |  |  |  |  |  | > 100 µM | 
< 7.00 |  | COC(=O)N[C@H](C(=O)N1CCC[C@H]1c1ncc(-c2ccc(-c3ccc(S(C)(=O)=O)cc3)cc2)[nH]1)C(C)C | 6 µM | 54 µM | > 100 µM | > 1 µM |  |  |  |  |  |  |  |  |  | 
< 7.00 |  | COC(=O)N[C@H](C(=O)N1CCC[C@H]1c1ncc(-c2ccc([N+](=O)[O-])cc2)[nH]1)C(C)C | > 100 µM | > 100 µM | > 100 µM | > 1 µM |  |  |  |  |  |  |  |  |  | 
< 7.00 |  | COC(=O)N[C@H](C(=O)N1CCC[C@H]1c1ncc(-c2ccc(Br)cc2)[nH]1)C(C)C | 48 µM | 50 µM | > 100 µM | > 1 µM |  |  |  |  |  |  |  |  |  | 
8.10 | 52 nM | COC(=O)N[C@H](C(=O)N1CCC[C@H]1c1ncc(-c2ccc(N=[N+]=[N-])cc2)[nH]1)C(C)C | > 100 µM | > 100 µM | > 100 µM | > 1 µM | < 4.00 | < 4.00 | < 4.00 | 5.29 | > 100 µM | > 100 µM | > 100 µM | 96.1 µM |  | 
< 7.00 |  | COC(=O)N[C@H](C(=O)N1CCC[C@H]1c1ncc(-c2ccc(-c3ccc(C)cc3)cc2)[nH]1)C(C)C | 14 µM | 16 µM | 90 µM | > 1 µM |  |  |  |  |  |  |  |  |  | 
< 7.00 |  | COC(=O)N[C@H](C(=O)N1CCC[C@H]1c1ncc(-c2ccc(-c3ccc(N=[N+]=[N-])cc3)cc2)[nH]1)C(C)C | 11 µM | 11 µM | 37 µM | > 1 µM |  |  |  |  |  |  |  |  |  | 
< 6.00 |  | C=CC[C@H](NC(C)=O)C(=O)N1CCC[C@H]1c1ncc(-c2ccc(-c3ccccc3)cc2)[nH]1 | 21 µM | 73 µM | 100 µM | > 1 µM |  |  |  |  |  |  |  |  |  | 
< 7.00 |  | COC(=O)N[C@H](C(=O)N1CCC[C@H]1c1ncc(-c2ccc(OC(F)(F)F)cc2)[nH]1)C(C)C | 30 µM |  | 49 µM | > 1 µM |  |  |  |  |  |  |  |  | > 100 µM | 
< 6.00 |  | COC(=O)N[C@H](C(=O)N1CCC[C@H]1c1ncc(-c2ccc(-c3cccc(O)c3)cc2)[nH]1)C(C)C | 50 µM |  |  | > 1 µM |  |  |  |  |  |  |  |  | > 100 µM | > 100 µM

SMILES | pEC50 [5] | EC90 [5] | CC50 [1] | CC50 [2] | CC50 [3] | CC50 [4] | pIC50 [6] | pIC50 [7] | pIC50 [8] | pIC50 [9] | IC90 [10] | IC90 [11] | IC90 [12] | IC90 [13] | CC50 [14] | CC50 [15]
COC(=O)N[C@H](C(=O)N1CCC[C@H]1c1nc(-c2ccc(-c3ccc(C(F)(F)F)cc3)cc2)c[nH]1)C(C)C | 8.34 | 9.6 nM | 14 µM | 12 µM | > 100 µM | > 1 µM | 4.21 | 5.04 | 4.08 | 5.19 | > 100 µM | > 100 µM | > 100 µM | > 100 µM |  | 
COC(=O)N[C@H](C(=O)N1CCC[C@H]1c1ncc(-c2ccc(-c3ccc(-c4cnc([C@@H]5CCCN5C(=O)[C@@H](NC(=O)OC)C(C)C)[nH]4)cc3)cc2)[nH]1)C(C)C | 11.00 | 0.03 nM |  |  |  |  |  |  |  |  |  |  |  |  |  | 
COC(=O)N[C@H](C(=O)N1CCC[C@H]1c1nc(-c2ccc(-c3ccc(CO)cc3)cc2)c[nH]1)C(C)C | 8.70 | 9 nM | 59 µM | 67 µM | > 100 µM | > 1 µM | < 4.00 | 4.51 | 4.25 | 5.16 | > 100 µM | > 100 µM | > 100 µM | > 100 µM |  | 
